Reference: patent US20200023038A1, “METHOD OF TREATING NEOPLASIAS” (PARANTA BIOSCIENCES LIMITED, priority 2015, published 2020)
“Also recorded” adds a separate entry of the source.

Experiments:
TAK1 = assay: Western blot of phospho-TAK1; type: cell-based, human
Procedure: Cell lysates were prepared using RIPA buffer with the addition of Halt Protease and Phosphatase Inhibitor Cocktails. Gel electrophoresis and transfer was performed using the BioRad MiniProtean System according to manufacturer's instructions. Phospho-TAK1 was detected using the combination of Rabbit anti-Phospho-TAK1 and anti-Rabbit IgG, HRP linked primary and secondary antibodies respectively.

[1] = test system: A549 lung adenocarcinoma cells; assay: Sensitization of cells to platinum/alkylating agent with TGFBR1 and ACVR1B inhibitor; type: cell-based, human
Procedure: 10,000 cells per well were plated in to a 96 well plate. […] Plates are left to incubate for 3 days with an Alamar Blue reading performed at end point.
(§1) 5000 cells per well were plated in quadruplicates in RPMI with 1% heat-inactivated NCS (HiNCS) and Glutamax and allowed to adhere overnight. Media was then removed and either vehicle or 5 μM SB-505124 was added and incubated for 24 hours. Media was then removed and replaced with media containing increasing concentrations of carboplatin with either vehicle or 5 μM SB-505124. After 3 days of incubation Alamar Blue was added and plates were incubated for 2.5 hours before being read using Fluostar Optima Plate Reader.

NCI-H358 = assay: Sensitization of cells to platinum with TGFBR1 and ACVR1B inhibitor; type: cell-based, human; conditions: NCI-H358, 5 μM SB-505124 pre-treatment 24 hours, then carboplatin 3 days
Procedure: as §1

[2] = test system: A549 lung adenocarcinoma cell line; assay: Innate platinum responsiveness, Alamar Blue viability over carboplatin concentrations; type: cell-based, human; conditions: chemonaive A549, 3 days
Procedure: The A549 lung adenocarcinoma cell line was originally derived from a smoker prior to treatment with chemotherapy. This chemonaive cell line carrying a common KRAS mutation was chosen as the primary cell line for modelling innate platinum responsiveness. Platinum responsiveness of A549 lung adenocarcinoma cell line was assessed against a wide range of carboplatin concentrations. […] 10,000 cells per well were plated in to a 96 well plate. […] Plates are left to incubate for 3 days with an Alamar Blue reading performed at end point. Curves of cell death in response to the respective alkylating agent were generated by graphing fluorescence (as a measure of cell viability) vs the alkylating agent concentration.

[3] = test system: A549 lung adenocarcinoma cells; assay: DNA damage response, γH2AX confocal immunofluorescence; type: cell-based, human; conditions: 24 hr carboplatin, increasing concentrations
Procedure: DNA damage induced by platinum was visualised by confocal immunofluorescence microscopy. A549 lung adenocarcinoma cells were treated with appropriate primary and secondary antibodies to visualise γH2AX and the DNA counterstain DAPI following 24 hr treatment with increasing concentrations of carboplatin.

A549 flank xenografts = assay: In vivo modelling of platinum resistance, xenograft; design: species or system athymic nude mice; conditions: carboplatin 60 mg/kg day 0 or 2 μg FST day −1, +1, +3, +5, intraperitoneally
Procedure: Follistatin (FST) is a molecule that is known for its role in regulating the activities of TGFβ superfamily members, including activin and GDF11, both of which were identified as important players in chemoresistance of non-small cell lung carcinoma (NSCLC) cells (see Example 2). Therefore, the effects of FST on inducing sensitization of NSCLC cells to platinum therapy were assessed in an in vivo xenograft model. Athymic nude mice bearing A549 flank xenografts were treated with combinations of vehicle control, 60 mg/kg carboplatin on day 0, and/or 2 μg FST on day -1, +1, +3 and +5. Five mice were randomized in to each of the treatment groups and treatments started when the tumour size was 200 mm^3. Tumour volumes were measured daily and the animals were culled when the tumour size reached over 500 mm^3. Athymic nude mice bearing A549 flank xenografts were treated with combinations of vehicle control, 60 mg/kg carboplatin on day 0, and/or 2 μg FST on day -1, +1, +3 and +5 administered intraperitoneally. Recombinant human Follistatin 288 (FST) was used in all experiments. FST was provided by […] Biosciences Ltd.

LX22CL cells = assay: Innate platinum responsiveness, Alamar Blue viability over carboplatin concentrations; type: cell-based, human; conditions: chemonaive SCLC line LX22CL, 3 days
[4] = background statement; cited from earlier work

Cc1cccc(-c2[nH]c(C(C)(C)C)nc2-c2ccc3c(c2)OCO3)n1 [SB-505124]
activation of TAK1 (phosphorylated TAK1 level) (TAK1; A549 and NCI-H358 cells, SB-505124 pre-treatment then carboplatin): inhibited the activation of TAK1
sensitization to platinum (carboplatin) ([1]; A549, 5 μM SB-505124 pre-treatment 24 hours, then carboplatin 3 days): induced sensitization to platinum; also recorded: sensitized
sensitization to busulfan ([1]; A549, SB-505124 pre-treatment then busulfan range): showed sensitization
sensitization to cisplatin ([1]; A549, SB-505124 pre-treatment then cisplatin range): showed sensitization
sensitization to platinum (carboplatin) (NCI-H358): showed sensitization to platinum; also recorded: sensitized

N.N.O=C([O-])C1(C(=O)[O-])CCC1.[Pt+2] [carboplatin]
platinum responsiveness (survival against carboplatin concentration) [2]: exhibits an active resistance mechanism
DNA damage (γH2AX) [3]: effect DNA damage, at much lower concentrations than is required to induce cell death
phosphorylated TAK1 (activated form) levels (TAK1; cells treated with carboplatin): upregulated
tumour growth, agent alone (A549 flank xenografts): did not affect tumour growth
platinum responsiveness (survival against carboplatin concentration) (LX22CL cells): shows sensitivity to carboplatin

N.N.[Cl][Pt][Cl] [trans-DDP, trans-diamminedichloroplatinum (II)]
activity against tumours [4]: ineffective against tumours
